Data from US20260132103A1, “Bumetanide Derivatives for the Therapy of Stroke and Other Neurological Diseases/Disorders Involving NKCCs” (University of Pittsburgh - Of the Commonwealth System of …, priority 2018, published 2026).

Target: T1, pNKCC1 and tNKCC1 proteins (Mus musculus, UniProt P55012)
T1 construct: cell lysates were harvested for immunoblotting of pNKCC1 and tNKCC1 proteins; endogenous in cells; host or cells: GL26 and SB28-GFP mouse glioma cells
T1 sequence (P55012 1-1205): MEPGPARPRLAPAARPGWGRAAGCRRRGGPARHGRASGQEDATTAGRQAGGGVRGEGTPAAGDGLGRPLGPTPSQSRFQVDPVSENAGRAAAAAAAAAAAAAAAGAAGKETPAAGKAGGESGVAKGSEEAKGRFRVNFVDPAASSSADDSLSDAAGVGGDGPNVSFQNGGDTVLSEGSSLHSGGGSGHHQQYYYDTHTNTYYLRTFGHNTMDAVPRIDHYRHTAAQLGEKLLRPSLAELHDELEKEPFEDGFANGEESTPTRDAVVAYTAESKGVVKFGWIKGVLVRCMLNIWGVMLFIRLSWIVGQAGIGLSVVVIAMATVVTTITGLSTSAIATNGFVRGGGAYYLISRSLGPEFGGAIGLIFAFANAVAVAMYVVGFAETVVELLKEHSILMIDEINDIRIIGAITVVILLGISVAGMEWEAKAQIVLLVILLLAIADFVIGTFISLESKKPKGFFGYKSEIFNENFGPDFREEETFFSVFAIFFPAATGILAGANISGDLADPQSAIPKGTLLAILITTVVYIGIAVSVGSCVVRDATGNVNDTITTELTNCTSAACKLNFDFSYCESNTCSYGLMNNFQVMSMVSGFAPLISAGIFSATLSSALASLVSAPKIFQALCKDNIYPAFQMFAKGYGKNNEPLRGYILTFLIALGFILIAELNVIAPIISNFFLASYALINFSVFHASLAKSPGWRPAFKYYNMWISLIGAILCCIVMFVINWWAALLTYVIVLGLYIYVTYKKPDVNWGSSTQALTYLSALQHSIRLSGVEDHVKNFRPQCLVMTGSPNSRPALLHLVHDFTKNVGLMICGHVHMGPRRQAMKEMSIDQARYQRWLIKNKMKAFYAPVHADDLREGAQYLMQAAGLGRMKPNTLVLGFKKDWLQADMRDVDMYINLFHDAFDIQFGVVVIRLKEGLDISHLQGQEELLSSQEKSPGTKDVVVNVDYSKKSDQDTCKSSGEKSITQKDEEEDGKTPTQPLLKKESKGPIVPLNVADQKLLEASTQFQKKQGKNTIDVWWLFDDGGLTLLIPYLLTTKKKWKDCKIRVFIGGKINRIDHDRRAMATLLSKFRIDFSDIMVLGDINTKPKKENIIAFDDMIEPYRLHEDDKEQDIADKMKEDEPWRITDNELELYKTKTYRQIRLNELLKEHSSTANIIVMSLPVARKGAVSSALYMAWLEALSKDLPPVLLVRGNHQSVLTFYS
Experiment: Immunoblotting of pNKCC1 and tNKCC1
Format: cell-based
Conditions: GL26 and SB28-GFP cells, 6 h; BMT 10 μM, STS66 10 μM, TMZ 100 μM or combined
Protocol: FIGS. 6A-6B: GL26 and SB28-GFP cells were exposed to BMT (10 μM), STS66 (10 μM), TMZ (100 μM) or combined for 6 h and cell lysates were harvested for immunoblotting of pNKCC1 and tNKCC1 proteins. Data are means±SEM from six independent experiments. *P<0.05, **P<0.01, ***P<0.001.
GL26 and SB28-GFP cells were washed with ice-cold PBS and incubated in RIPA buffer containing 1 pill of phosSTOP and 2 mM protease inhibitors as described before (Algharabli et al. 2012). Cells were lysed by sonication at 4° C. Protein content of the cellular lysate was determined with BCA Protein Assay Kit. Samples and sample buffer (Thermo Scientific, Rockford, IL, USA) were boiled at 95° C. for 5 min. The samples were then electrophoretically separated on 10% SDS gels. After transferring to PVDF membranes, the blots were blocked in 10% nonfat dry milk in TBS-T (Tris-buffered saline, 0.05% Tween-20) for 1 hour at room temperature and then incubated with appropriate primary antibodies (pNKCC1, 1:300 and tNKCC1, 1:3000) at 4° C. overnight. After rinsing with TBS-T, the blots were incubated with horseradish peroxidase-conjugated secondary IgG (1:2000) for 1 hr at RT. Bound antibody was visualized with an enhanced chemiluminescence assay. Protein band signal intensities were analyzed using ImageJ and normalized to α-tubulin expression.

With CCCCNc1cc(CNCC(F)(F)F)cc(S(N)(=O)=O)c1Oc1ccccc1 [STS66, 3-(Butylamino)-2-phenoxy-5-[(2,2,2-trifluoroethylamino)methyl]benzenesulfonamide] the “pNKCC1 and tNKCC1 expression” value was “did not show significant decrease”.
